According to patent US8354372B2 (priority 2006, dated 2013):
Bridge positions count the residues as written; N and C are the ends. Peptide text beside a SMILES is read from it.

Columns and labels:
[1] = tested on: bovine adrenal chromaffin cells; format: cell-based
[2] = target: endoproteinase Glu-C (Endo Glu-C) (Staphylococcus aureus, UniProt P0C1U8); details: pH 8
[3] = in vitro; details: human, plasma

Sequence of endoproteinase Glu-C (Endo Glu-C) (P0C1U8 69-336 limits assumed): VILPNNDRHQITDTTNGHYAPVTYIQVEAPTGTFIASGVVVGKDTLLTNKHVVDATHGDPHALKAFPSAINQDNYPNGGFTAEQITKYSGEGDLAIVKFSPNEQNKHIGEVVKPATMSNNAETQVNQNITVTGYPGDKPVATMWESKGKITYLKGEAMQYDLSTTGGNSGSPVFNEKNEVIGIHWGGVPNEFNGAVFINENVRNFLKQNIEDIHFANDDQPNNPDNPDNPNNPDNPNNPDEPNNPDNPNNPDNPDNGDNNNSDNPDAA

SMILES | inhibition of nicotine-evoked catecholamine release, activity relative to linear MII [1] | intact peptide remaining on incubation with Endo-GluC [2] | stability in human plasma relative to MII | remaining at 24 h [3] [%]
CC(C)C[C@@H]1NC(=O)[C@H](CC(N)=O)NC(=O)[C@H](CO)NC(=O)[C@H](Cc2c[nH]cn2)NC(=O)[C@H](CCC(=O)O)NC(=O)[C@H](CC(C)C)NC(=O)[C@H](Cc2c[nH]cn2)NC(=O)[C@@H]2CSSC[C@@H]3NC(=O)CNC(=O)CNC(=O)CNC(=O)[C@H](C)NC(=O)[C@H](C)NC(=O)CNC(=O)CNC(=O)[C@H](CSSC[C@H](NC3=O)C(=O)N[C@@H](CO)C(=O)N[C@@H](CC(N)=O)C(=O)N3CCC[C@H]3C(=O)N[C@@H](C(C)C)C(=O)N2)NC1=O [cMII-6] (cyclo(AAGGGCCSNPVCHLEHSNLCGG); disulfide 6-12, 7-20) | comparable to linear MII | remain entirely intact | dramatically greater than MII | ~90
CC(C)C[C@@H]1NC(=O)[C@H](CC(N)=O)NC(=O)[C@H](CO)NC(=O)[C@H](Cc2c[nH]cn2)NC(=O)[C@H](CCC(=O)O)NC(=O)[C@H](CC(C)C)NC(=O)[C@H](Cc2c[nH]cn2)NC(=O)[C@@H]2CSSC[C@@H]3NC(=O)CNC(=O)CNC(=O)[C@H](C)NC(=O)[C@H](C)NC(=O)CNC(=O)[C@H](C)NC(=O)CNC(=O)CNC(=O)[C@H](CSSC[C@H](NC3=O)C(=O)N[C@@H](CO)C(=O)N[C@@H](CC(N)=O)C(=O)N3CCC[C@H]3C(=O)N[C@@H](C(C)C)C(=O)N2)NC1=O [cMII-7] (cyclo(AAGGCCSNPVCHLEHSNLCGGAG); disulfide 5-11, 6-19) | comparable to linear MII | remain entirely intact | dramatically greater than MII | ~90
